Several values for one entry are separate records, joined by “and”; a condition that tells them apart may be missing. Identical values can stand only once.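 Test compounds were applied to cells in 96-well plates for 48 hours at 5 doses. Here, GI50 denotes the concentration required for 50% inhibition of growth. TGI marks complete inhibition of growth.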
Tests used:
Test in all cases: inhibition of tumour cell growth, NCI panel, 48 h
SF-295 CNS = test system: SF-295 CNS
MCF7 breast = test system: MCF7 breast
SN12C renal = test system: SN12C renal
OVCAR-8 ovarian = test system: OVCAR-8 ovarian
ACHN renal = test system: ACHN renal
T-47D breast = test system: T-47D breast
UACC-62 melanoma = test system: UACC-62 melanoma
NCI/ADR-RES ovarian = test system: NCI/ADR-RES ovarian
HOP-92 NSCLC = test system: HOP-92 NSCLC
NCI-H23 lung = test system: NCI-H23 lung

SMILES	GI50 (SF-295 CNS)	TGI (SF-295 CNS)	GI50 (MCF7 breast)	TGI (MCF7 breast) [µM]	GI50 (SN12C renal)	TGI (SN12C renal) [µM]	GI50 (OVCAR-8 ovarian)	TGI (OVCAR-8 ovarian) [µM]	GI50 (ACHN renal)	TGI (ACHN renal) [µM]	GI50 (T-47D breast)	TGI (T-47D breast)	GI50 (UACC-62 melanoma)	TGI (UACC-62 melanoma) [µM]	GI50 (NCI/ADR-RES ovarian)	TGI (NCI/ADR-RES ovarian) [µM]	GI50 (HOP-92 NSCLC)	TGI (HOP-92 NSCLC)	GI50 (NCI-H23 lung)	TGI (NCI-H23 lung) [µM]
CN(C)CCS(=O)(=O)Nc1cc(-c2ccc3ncc(C#N)c(Nc4ccc(F)c(Cl)c4)c3c2)cnc1Cl	0.366 µM	2.4 µM	0.106 µM	1.39	0.232 µM	> 100	0.387 µM	> 32.6	0.546 µM	> 100	0.0732 µM	0.65 µM	0.169 µM	0.63	2.11 µM	> 29.3	0.0322 µM	0.409 µM	0.159 µM	0.469
CCCN(CCC)c1ccc(C=O)c(C)c1	29.1 µM	> 100 µM	40.8 µM	> 100	56.7 µM	> 100	57.2 µM	> 100	49.4 µM	> 100	20.8 µM	98.9 µM	28.4 µM	> 100	36.1 µM	> 100	16.4 µM	64.7 µM	35.8 µM	> 100
O=C1c2c(Cl)c(Cl)c(Cl)c(Cl)c2C(=O)C2(Cl)CC=CCC12Cl (stereo not drawn)	3.35 µM	11.2 µM	1.58 µM	3.55	1.78 µM	3.22	1.64 µM	3.12	1.89 µM	3.37	1.74 µM	4.01 µM	1.67 µM	3.27	3.41 µM	13.2	2.03 µM	3.87 µM	1.84 µM	3.94
Cc1ccc(OCCOCCOCCOCCOCCOc2ccc(C)n(O)c2=S)c(=S)n1O	0.0378 µM	> 43.6 µM	0.0254 µM	> 69.7	0.0496 µM	> 100	0.0384 µM	> 100	0.0494 µM	> 87.2	0.0402 µM	> 100 µM	0.0815 µM	12.5	0.0478 µM	> 77	3.06 µM	54.5 µM	0.08 µM	> 100
CN(C)CCOc1ccccc1NC1=C(Cl)C(=O)C(Nc2ccccc2OCCN(C)C)=C(Cl)C1=O	> 38.4 µM	> 65.9 µM	0.51 µM	1.18	0.573 µM	1.21	4.16 µM	20.7	0.494 µM	1.6	0.811 µM	3.16 µM	> 34.1 µM	> 49.3	24.6 µM	> 100	1.45 µM	3.07 µM	6.47 µM	22.6
OCC1CCCC1O (stereo not drawn)		> 100 µM		> 100		> 100		> 100		> 100		> 100 µM		> 100		> 100		> 100 µM		> 100
COC(=O)CNc1nc(N(C)O)nc(N(C)O)n1	2.92 µM	> 100 µM	3.07 µM	> 100	9.17 µM	> 100	3.31 µM	> 100	1.35 µM	> 100	17.7 µM	> 100 µM	4.3 µM	29.1	2.86 µM	> 100	> 100 µM	> 100 µM	11.5 µM	> 100
CC(=O)OCC1OC(n2ncc(=O)[nH]c2=O)C(OC(C)=O)C1OC(C)=O (stereo not drawn)		> 100 µM		> 100		> 100		> 100		> 100		> 100 µM		> 100		> 100		> 100 µM		> 100
COc1ccc(NC(=O)c2ccc(NC3=C(Cl)C(=O)N(Cc4ccccc4)C3=O)cc2)c(OC)c1	25.7 µM	99.1 µM	33.7 µM	> 100	29.2 µM	83.5	29.2 µM	> 100	36 µM	> 100	38.9 µM	> 100 µM	37.2 µM	> 100	17.8 µM	47.3	6.27 µM	47 µM	14.3 µM	29.2
Cc1ccsc1-c1ccc2c(c1)COC2(CCCN(C)C)c1ccc(F)cc1 (stereo not drawn)	1.77 µM	3.58 µM	1.74 µM	3.67	3.59 µM	15.5	3.28 µM	13.2	3.48 µM	13.3	2.15 µM	6.92 µM	1.89 µM	4.04	3.83 µM	15.2	1.76 µM	7.44 µM	5.39 µM	18.1
O=C(c1ccccc1)c1nc2ccc(C(F)(F)F)cc2nc1N1CCN(c2ccccc2)CC1	42.8 µM	> 100 µM	48.2 µM	> 100	36.2 µM	> 100	41.8 µM	> 100	21.6 µM	53.7	21.8 µM	48.9 µM	18.5 µM	43.2	34.2 µM	> 100	49.3 µM	> 100 µM	25.7 µM	69.5
O=C1NC(=NCCc2ccccn2)S/C1=C\c1ccc2ncccc2c1	> 16.1 µM	> 25 µM	10.5 µM	> 25	9.33 µM	> 25	12.6 µM	> 25	8.2 µM	> 25	11 µM	> 25 µM	9.73 µM	> 25	> 18.5 µM	> 25	9.33 µM	> 25 µM	11.1 µM	> 25
COc1ccc2nc3cccc([N+](=O)[O-])c3c(NC(C)CN(C)C)c2c1 (stereo not drawn)	2.37 µM	10.1 µM	1.17 µM	4.36	2.67 µM	9.6	1.54 µM	7.64	1.58 µM	7.23	5.52 µM	36 µM	1.46 µM	3.05	2.92 µM	13	2.38 µM	5.68 µM	2.1 µM	5.33
N#CC1=C(N)Oc2c(sc3c(Br)cccc23)C1c1ccc(Cl)cc1 (stereo not drawn)	0.276 µM	0.869 µM	0.295 µM	5.07	2.88 µM	17.6	1.71 µM	8.29	0.531 µM	2.46	0.464 µM	11.6 µM	0.435 µM	8.35	0.332 µM	1.35	2 µM	7.29 µM	0.821 µM	4.86
Cc1ccccc1C(C(=O)NC1CCCCC1)N(C(=O)CNc1ccc(C#N)cc1)c1cccc(F)c1 (stereo not drawn)	13.8 µM	44.6 µM	49.8 µM	> 100	29.7 µM	> 100	10.6 µM	> 100	11.7 µM	> 100	31.4 µM	> 100 µM	18.7 µM	> 100	26.2 µM	> 100	8.65 µM	28.7 µM	25.1 µM	> 77.6
C=C1C(=O)C2=CC1CCC(=O)C1(C)CCC(OC(C)=O)C(C)(C)C1CC2O (stereo not drawn)		25.6 µM		3.84		12.5		16.5		6.82		21.8 µM		5.96		24.9		20.3 µM		8.62
C/C=C(\C)C(=O)O[C@H]1C=CC(=O)O[C@H]1COC(=O)[C@H](C)O	13.1 µM	28.9 µM	3.4 µM	14.1	12.9 µM	28.3	12.2 µM	28.3	4.38 µM	16.6	3.81 µM	19.2 µM	7.71 µM	21	12.1 µM	32.6	7.6 µM	21.1 µM	15.3 µM	36.9
Cc1sc2c(c1C)C(c1ccc(Cl)cc1)=N[C@@H](CC(=O)NCCCN1CCN(C)CC1)c1nnc(C)n1-2	8.12 µM	> 100 µM	0.0564 µM	> 100	7.36 µM	> 100	4.96 µM	> 100	17.1 µM	> 100	0.287 µM	> 100 µM	0.214 µM	> 100	> 100 µM	> 100	0.032 µM	> 25.2 µM	5.67 µM	> 100
O=[N+]([O-])c1ccc2c(c1)C(c1ccccc1Cl)=Nc1c(n[nH]c1-c1cccnc1)N2	> 25 µM	> 25 µM	> 25 µM	> 25	> 25 µM	> 25	> 25 µM	> 25	> 25 µM	> 25	> 25 µM	> 25 µM	> 25 µM	> 25	> 25 µM	> 25	> 25 µM	> 25 µM	> 25 µM	> 25
CN(C)Cc1c(C(=O)NCCOc2ccc(C(=O)NO)cc2)oc2ccccc12	0.225 µM	0.713 µM	0.261 µM		0.459 µM	> 100	0.0807 µM	3.99	0.264 µM	1.15	0.163 µM	0.777 µM	0.151 µM	0.63	0.306 µM	4.27	0.0603 µM	0.424 µM	0.267 µM	2.06
Nc1nn(C(=O)Nc2c(F)cccc2F)c2ccccc12	54.8 µM	> 100 µM	60 µM	> 100	> 100 µM	> 100	44.2 µM	> 100	50.1 µM	> 100	68.7 µM	> 100 µM	43.9 µM	> 100	56.5 µM	> 100	17.3 µM	> 100 µM	95.6 µM	> 100
Cn1c(-c2c(N)n(Cc3ccc(F)cc3)c3nc(C#N)c(C#N)nc23)nc2ccccc21	7.68 µM	32.5 µM	2.19 µM	> 50	2.09 µM	20	1.63 µM	11.8	0.829 µM	2.43	1.08 µM	4.61 µM	3.37 µM	26.6	7.56 µM	22.5	1.63 µM	18.4 µM	1.3 µM	4.08
Cn1c(=O)c(Oc2ccc(F)cc2F)cc2cnc(NC3CCOCC3)nc21	> 25 µM	> 25 µM	> 25 µM	> 25	> 25 µM	> 25	> 25 µM	> 25	> 25 µM	> 25	> 25 µM	> 25 µM	> 25 µM	> 25	> 25 µM	> 25	0.601 µM	19.4 µM	> 25 µM	> 25
Cc1c2c(nn1-c1ccc(S(=O)(=O)NC(=S)NC(=O)c3ccccc3)cc1)-c1ccccc1CC2	17.4 µM	48.6 µM	35.9 µM	> 100	34.4 µM	> 100	72.4 µM	> 100	41 µM	> 100	44.9 µM	> 100 µM	29 µM	> 100	> 100 µM	> 100	> 100 µM	> 100 µM	53.9 µM	> 100
CC(C)C(=O)c1c(C(F)(F)F)n([O-])c2ccccc2[n+]1=O	0.553 µM	2 µM	0.731 µM	6.06	1.77 µM	3.97	2.14 µM	> 20.5	2.3 µM		0.827 µM	3.49 µM	1.59 µM	3.44	1.74 µM	5.46	0.466 µM	1.62 µM	1.67 µM	3.41
CC1Cc2ccccc2N1C(=O)Cc1nc(N2CCOCC2)cc(=O)[nH]1 (stereo not drawn)	3.15 µM and 6.95 µM	> 100 µM and 97.7 µM	2.3 µM and 4.77 µM	> 100	9.39 µM and 13.9 µM	> 100	34.8 µM and 32 µM	> 100	3.94 µM and 8.73 µM	> 100	1.6 µM and 3.73 µM	42.6 µM and 99.7 µM	0.856 µM and 1.73 µM	> 100	64.5 µM and > 88.6 µM	> 100	0.915 µM and 3.04 µM	46.1 µM and > 75.2 µM	48.7 µM and > 91.5 µM	> 100

From PubChem BioAssay (NCI)
